8 molecules from patent US20230287336A1, “METHOD FOR IMPROVING FLAVONOID PHENYLPROPANOID COMPOUNDS IN SAUSSUREA INVOLUCRATA CELL CULTURE” (DALIAN PRACTICAL BIOTECHNOLOGY CO, .LTD, priority 2019, published 2023) can be followed below.

Read-outs that look alike come from different tables or passages of the source.

Holding throughout (format): cell-based
Assay [1] has as its system Saussurea involucrata cell culture. Briefly: Content of total flavonoids in cultured cells, measured with a spectrophotometer (rutin standard curve). On the procedure: (2) Method for Determining Total Flavonoids of Saussurea involucrata:
Preparation of control solution: 10 mg of rutin control substance dried to a constant weight at 120° C. was precisely weighed and placed in a 50 mL volumetric flask, an appropriate amount of methanol was added, the mixture was heated in water bath to dissolve the rutin control substance and cooled down, methanol was added to the graduation line, and the mixture was shaken well. Then a control solution was obtained (0.2 mg of anhydrous rutin was contained in 1 mL of control solution);
Preparation of a standard curve: 1 mL, 2 mL, 3 mL, 4 mL, 5 mL and 6 mL of control solutions were precisely weighed and placed in 25 mL volumetric flasks respectively, water was added to 6 mL in each volumetric flask, 1 mL of 5% sodium nitrite solution was added, and the flasks were shaken well and placed for 6 min; 1 mL of 10% aluminum nitrate was added, and the flasks were shaken well and placed for 6 min; 10 mL of sodium hydroxide test solution was added, water was added to the graduation line, and the flasks were shaken well and placed for 15 min; a corresponding reagent was used as a blank, an absorbance was determined at 500 nm, and a standard curve was plotted with the absorbance as a longitudinal coordinate and a concentration as a horizontal coordinate;
Determination: About 0.10 g of coarse powder of this product was taken, precisely weighed and placed in a Soxhlet extractor, about 90 mL of methanol was added, the mixture was heated to reflux until an extracting solution became colorless (the number of reflux times for each sample should not be less than 4 and 2 hours) and transferred into a 50 mL volumetric flask, methanol was added to the graduation line, and the flask was shaken well.

The test system is the same in assay [2]. Briefly: Contents of rutin, chlorogenic acid, syringin and 1,5-dicaffeoylquinic acid in cultured cells by HPLC. The procedure:
(3) Content Determination of Phenylpropanoids
Cultured Saussurea involucrata cells dried to a constant weight were taken and ground to fine powder; about […] of fine powder was precisely weighed, placed in a test tube with a stopper and extracted ultrasonically with 50 mL of 20% methanol for 1 h; a weight loss was supplemented with methanol, the mixture was centrifuged at 15,000 r/min for 20 min, a supernatant was taken and filtered through a 0.45 μm filter membrane, and the contents of rutin, chlorogenic acid, syringin and 1,5-dicaffeoylquinic acid were determined simultaneously through HPLC. Shiseido capcell pak C18 MGII chromatographic column (4.6 mm×250 mm, 5 μm);
A mobile phase A was 0.2% of […] (containing 50 mmo/L KH2PO4), a mobile phase B was acetonitrile, and gradient elution was performed. Gradient conditions: 0 min (VA:VB=92:8)-20 min (VA:VB=90:10)-50 min (VA:VB=70:30)-60 min (VA:VB=50:50); flow velocity 1.0 mL/min^−1; column temperature 30° C.; detection wavelength 265 nm (syringin); sample size 20 μL.

Assay [3] has the same test system. Briefly: Dry cell weight / yield of dried cultures after culturing. The procedure:
(1) Measurement of Dry Cell Weight Cell culture solution was poured into a 120-mesh stainless steel mesh and filtered to harvest cells, the cells were washed with distilled water 3 times, moisture on the surface of the cells was fully absorbed with absorbent paper, a fresh weight was measured, […]

Where [4] appears, read: harvested suspension culture, medium, additive, time of addition and culturing time as in each example.
Setting [5] is: cells dried at 50° C. for 24 h, additive and culture conditions as in each example.

On to `O=C(O)C=Cc1ccccc1` [cinnamic acid], for which the “content of total flavonoids in the cells” value in assay [1] (setting [4]) is “more than 22 % of the cells (dry weight)”. Also, in assay [2] (setting [4]), the “content of 1,5-dicaffeoylquinic acid in the cells” value is “more than 2.81%”, the “content of chlorogenic acid in the cells” value is listed as “more than 1.66%”, the “content of rutin in the cells” value is recorded as “more than 0.066%” and the “content of syringin in the cells” value is recorded as “more than 1.45%”. Moreover, the “weight of cultures after being dried (yield of dry products)” value (shortened to “weight of cultures after being dried”) in assay [3] (setting [5]) was 15 g/L.
As for `CC/C=C\CC1C(=O)CCC1CC(=O)OC` (centres unmarked) [methyl jasmonate], the “content of total flavonoids in the cells” value in assay [1] (setting [4]) is recorded as “more than 24.1 % of the cells (dry weight)”. Further, in assay [2] (setting [4]), the “content of 1,5-dicaffeoylquinic acid in the cells” value is reported as “more than 4.12%”, the “content of chlorogenic acid in the cells” value is “more than 2.44%”, the “content of rutin in the cells” value was “more than 0.081%” and the “content of syringin in the cells” value is “more than 1.89%”. Further, the “weight of cultures after being dried” value in assay [3] (setting [5]) worked out at 20.4 g/L.
In the case of `O=C(O)C(=O)O` [oxalic acid], in assay [1] (setting [4]), the “content of total flavonoids in the cells” value is recorded as “more than 19.6 % of the cells (dry weight)”. Also, in assay [2] (setting [4]), the “content of 1,5-dicaffeoylquinic acid in the cells” value was “more than 1.72%”, the “content of chlorogenic acid in the cells” value is “more than 1.27%”, the “content of rutin in the cells” value is listed as “more than 0.071%” and the “content of syringin in the cells” value is reported as “more than 0.95%”. Further, in assay [3] (setting [5]), the “weight of cultures after being dried” value is on record as 16 g/L.
For the molecule `N[C@@H](Cc1ccccc1)C(=O)O` [phenylalanine], the “content of total flavonoids in the cells” value in assay [1] (setting [4]) is listed as “more than 22.7 % of the cells (dry weight)”. Moreover, in assay [2] (setting [4]), the “content of 1,5-dicaffeoylquinic acid in the cells” value is listed as “more than 2.48%”, the “content of chlorogenic acid in the cells” value is given as “more than 1.28%”, the “content of rutin in the cells” value is “more than 0.078%” and the “content of syringin in the cells” value is listed as “more than 2.07%”. Moreover, the “weight of cultures after being dried” value in assay [3] (setting [5]) came to 15 g/L.
For the molecule `O=C(O)c1ccccc1O` [salicylic acid], in assay [1] (setting [4]), the “content of total flavonoids in the cells” value is listed as “more than 21.2 % of the cells (dry weight)”. In assay [2] (setting [4]), the “content of 1,5-dicaffeoylquinic acid in the cells” value is recorded as “more than 3.55%”, the “content of chlorogenic acid in the cells” value is on record as “more than 1.86%”, the “content of rutin in the cells” value is “more than 0.072%” and the “content of syringin in the cells” value is “more than 1.09%”. The “weight of cultures after being dried” value in assay [3] (setting [5]) is listed as 16.8 g/L.
Take `CC(=O)[O-].[Na+]` [sodium acetate]: the “content of total flavonoids in the cells” value in assay [1] was “more than 21.8 % of the cells (dry weight)”. In addition, in assay [2], the “content of 1,5-dicaffeoylquinic acid in the cells” value is recorded as “more than 2.35%”, the “content of chlorogenic acid in the cells” value was “more than 1.79%”, the “content of rutin in the cells” value was “more than 0.064%” and the “content of syringin in the cells” value is on record as “more than 1.22%”. Further, the “weight of cultures after being dried” value in assay [3] was found to be 15 g/L.
Take `N[C@@H](Cc1ccc(O)cc1)C(=O)O` [tyrosine]: the “content of total flavonoids in the cells” value in assay [1] (setting [4]) is on record as “more than 19.4 % of the cells (dry weight)”. Further, in assay [2] (setting [4]), the “content of 1,5-dicaffeoylquinic acid in the cells” value is “more than 2.75%”, the “content of chlorogenic acid in the cells” value is reported as “more than 0.62%”, the “content of rutin in the cells” value is “more than 0.062%” and the “content of syringin in the cells” value is recorded as “more than 1.49%”. In addition, the “weight of cultures after being dried” value in assay [3] (setting [5]) is on record as 18.2 g/L.
For the molecule silver nitrate, in assay [2] (setting [4]), the “content of 1,5-dicaffeoylquinic acid in the cells” value is given as “more than 2.97%”, the “content of chlorogenic acid in the cells” value is given as “more than 1.47%”, the “content of rutin in the cells” value is given as “more than 0.065%” and the “content of syringin in the cells” value is given as “more than 1.38%”. Moreover, the “weight of cultures after being dried” value in assay [3] (setting [5]) turned out to be 16 g/L.
